{
  "source": "patent US20230293428A1",
  "about": "“Drug delivery via contact lenses and similar ophthalmic devices” (Colorado School of Mines, priority 2021, published 2023)",
  "key": {"[1]": {"assay": "In vitro timolol release from drug-loaded contact lenses into PBS, fitted to Fick's diffusion (perfect sink) model", "format": "physicochemical", "description": "After drug loading, the lenses were removed from the timolol maleate solution and gently wiped with KimWipe to remove the excess solution remaining on the surface. Each lens was then placed in 3 mL of fresh PBS solution for in vitro drug release. The optical absorption spectra of the release media were measured by the same spectrophotometer used in Example 2. The concentration of the timolol in the release medium was determined by fitting the optical absorption spectra in the range of 260 to 340 nm with the calibration spectrum of timolol maleate using MATLAB's minimization of least square error method. The drug release profiles were fitted using a perfect sink model to determine drug diffusivity. By solving the Fick's law diffusion equation, the mass percent of the drug released as a function of time is given by […] To further investigate this effect, the diffusion coefficients of timolol in the lenses were calculated by fitting the release curves to Fick's diffusion equation as described above. […] As Table 5 illustrates, the diffusion coefficients of timolol from these lenses are about a third of the diffusion coefficient from control (blank/unloaded) lenses (circular data points in FIG. 5), which results in extension of release by about 10 hours."}, "[2]": {"assay": "Partition coefficient of timolol maleate between contact lens and loading solution", "format": "physicochemical", "description": "Timolol maleate was dissolved in PBS to prepare a 1.5 mg/mL solution. Each hydrated contact lens (both blank and vitamin E-loaded) was placed in 3 mL of this solution for 7 days to load the drug in the lenses.\nThe partition coefficient K of the drug is defined as the ratio of the concentration of the drug in the lens to the concentration of the drug in the medium when equilibrium is reached during the drug loading process. […] The concentration in the lens after 7 days of loading can be determined by dividing the total mass of the drug in the lens by the volume, and the mass of the drug can be determined from the release data based on the assumption that 100% of the drug is released due to the large volume of release medium compared to the lens volume. Therefore, the partition coefficient K is calculated as\nwhere Clens and Cloading are the concentration of the drug in the lens and the loading solution at equilibrium, respectively, Vrelease and Vlens are the volume of the release medium and the contact lens, respectively, and Crelease is the final concentration of the drug in the release medium."}, "[3]": {"details": "lens with 0 wt % vitamin E (blank), solvent n/a"}, "[4]": {"details": "lens with 8.4 wt % vitamin E, loaded from pure EtOH"}, "[5]": {"details": "lens with 8.6 wt % vitamin E, loaded from 75:25 EtOH:H2O"}, "[6]": {"details": "lens with 9.3 wt % vitamin E, loaded from 85:15 EtOH:H2O"}, "[7]": {"details": "lens with 19.3 wt % vitamin E, loaded from pure EtOH"}, "[8]": {"details": "lens with 19.9 wt % vitamin E, loaded from 85:15 EtOH:H2O"}, "[9]": {"details": "lenses with vitamin E loads of 8 to 10 wt %"}},
  "note": "Counter-ions that a name gives are not always drawn.",
  "data": [
    {"molecule": "CC(C)(C)NC[C@H](O)COc1nsnc1N1CCOCC1", "note": "[timolol maleate, Timolol maleate]", "values": [
      {"measurement": "D, diffusion coefficient of timolol maleate from contact lens", "setting": "[1]; [3]", "result": "2.04 · 10^−13 ± 0 m^2/s"},
      {"measurement": "D, diffusion coefficient of timolol maleate from contact lens", "setting": "[1]; [4]", "result": "(7.42 ± 1.49) · 10^−14 m^2/s"},
      {"measurement": "D, diffusion coefficient of timolol maleate from contact lens", "setting": "[1]; [5]", "result": "(6.20 ± 0.329) · 10^−14 m^2/s"},
      {"measurement": "D, diffusion coefficient of timolol maleate from contact lens", "setting": "[1]; [6]", "result": "5.09 · 10^−14 ± 0 m^2/s"},
      {"measurement": "D, diffusion coefficient of timolol maleate from contact lens", "setting": "[1]; [7]", "result": "(1.62 ± 0.219) · 10^−14 m^2/s"},
      {"measurement": "D, diffusion coefficient of timolol maleate from contact lens", "setting": "[1]; [8]", "result": "(13.2 ± 0.936) · 10^−15 m^2/s"},
      {"measurement": "diffusion coefficient of timolol relative to control (blank/unloaded) lenses", "setting": "[1]; [9]", "result": "about a third"},
      {"measurement": "extension of timolol release versus control (blank) lenses", "setting": "[1]; [9]", "result": "about 10 hours"},
      {"measurement": "timolol release time", "setting": "[1]; lenses with vitamin E loads of 8 to 10 wt %, made from different loading solutions", "result": "about 12 hours"},
      {"measurement": "duration of timolol release", "setting": "[1]; lenses with vitamin E loads of 19 to 20 wt %, two different solutions", "result": "more than 70 hours"},
      {"measurement": "duration of release of timolol from the lens", "setting": "[1]; vitamin E loads of about 10 wt %", "result": "about 10 hours"},
      {"measurement": "duration of release of timolol from the lens", "setting": "[1]; vitamin E loads of about 20 wt %", "result": "about 70 hours"},
      {"measurement": "K, partition coefficient of timolol maleate in contact lens", "setting": "[2]; [3]", "result": "0.7125 ± 0.0168"},
      {"measurement": "K, partition coefficient of timolol maleate in contact lens", "setting": "[2]; [4]", "result": "0.6050 ± 0.0171"},
      {"measurement": "K, partition coefficient of timolol maleate in contact lens", "setting": "[2]; [5]", "result": "0.6757 ± 0.0152"},
      {"measurement": "K, partition coefficient of timolol maleate in contact lens", "setting": "[2]; [6]", "result": "0.7969 ± 0.0242"},
      {"measurement": "K, partition coefficient of timolol maleate in contact lens", "setting": "[2]; [7]", "result": "0.5739 ± 0.0069"},
      {"measurement": "K, partition coefficient of timolol maleate in contact lens", "setting": "[2]; [8]", "result": "0.6108 ± 0.0489"}
    ]}
  ]
}
